Measurements: ChEMBL document CHEMBL4411312, “Design, Synthesis, and Biological Evaluation of New 1-(Aryl-1 H-pyrrolyl)(phenyl)methyl-1 H-imidazole Derivatives as Antiprotozoal Agents” (J Med Chem, 2019)
Calls of active or inactive are those of the source. The calls are words filed in the database; no cut-off is given here.

What was measured:
[1] = Selectivity index, ratio of CC50 for rat L6 cels to IC50 for Leishmania donovani MHOM/ET/67/L82 axenic amastigote; assay type: toxicity; conditions: L6 cells, read-out: Ratio IC50
[2] = Cytotoxicity against rat L6 cels assessed as reduction in cell viability after 72 hrs by Alamar Blue dye-based fluorometric analysis; conditions: L6 cells
Trypanosoma cruzi [3] = test: Potency index, ratio of benznidazole IC50 to compound IC50 for Trypanosoma cruzi Tulahuen C2C4 amastigotes infected in rat L6 cells after 96 hrs by inverted microscopic analysis; assay type: functional
Plasmodium falciparum = test: Antiprotozoal activity against erythrocytic stage of Plasmodium falciparum K1 after 48 hrs by [3H]- hypoxanthine incorporation assay; assay type: functional, organism-based
[4] = test system: Trypanosoma brucei rhodesiense; test: Antiprotozoal activity against Trypanosoma brucei rhodesiense STIB900 trypomastigotes after 72 hrs by Alamar Blue dye-based fluorometric analysis; assay type: functional, organism-based; conditions: STIB900, 72 h
Leishmania donovani = test: Antiprotozoal activity against Leishmania donovani MHOM/ET/67/L82 axenic amastigote after 72 hrs by inverted microscopic analysis; assay type: functional, organism-based; conditions: MHOM/ET/67/L82, 72 h
[5] = Selectivity index, ratio of CC50 for rat L6 cels to IC50 for erythrocytic stage of Plasmodium falciparum K1; assay type: toxicity; conditions: L6 cells, read-out: Ratio IC50
Trypanosoma cruzi [6] = test: Antiprotozoal activity against Trypanosoma cruzi Tulahuen C2C4 amastigotes infected in rat L6 cells after 96 hrs by inverted microscopic analysis; assay type: functional, organism-based; conditions: Tulahuen C2C4, L6, 96 h
[7] = Selectivity index, ratio of CC50 for rat L6 cels to IC50 for Trypanosoma brucei rhodesiense STIB900 trypomastigotes; assay type: toxicity; conditions: L6 cells, read-out: Ratio IC50
[8] = molecular target: Sterol 14-alpha demethylase (Trypanosoma cruzi (strain CL Brener)) (UniProt Q7Z1V1); test: Binding affinity to Trypanosoma cruzi CYP51 at 5 to 10 uM by UV-vis spectrophotometry
Sterol 14-alpha demethylase (Trypanosoma cruzi (strain CL Brener)), sequence (Q7Z1V1 whole entry, looked up): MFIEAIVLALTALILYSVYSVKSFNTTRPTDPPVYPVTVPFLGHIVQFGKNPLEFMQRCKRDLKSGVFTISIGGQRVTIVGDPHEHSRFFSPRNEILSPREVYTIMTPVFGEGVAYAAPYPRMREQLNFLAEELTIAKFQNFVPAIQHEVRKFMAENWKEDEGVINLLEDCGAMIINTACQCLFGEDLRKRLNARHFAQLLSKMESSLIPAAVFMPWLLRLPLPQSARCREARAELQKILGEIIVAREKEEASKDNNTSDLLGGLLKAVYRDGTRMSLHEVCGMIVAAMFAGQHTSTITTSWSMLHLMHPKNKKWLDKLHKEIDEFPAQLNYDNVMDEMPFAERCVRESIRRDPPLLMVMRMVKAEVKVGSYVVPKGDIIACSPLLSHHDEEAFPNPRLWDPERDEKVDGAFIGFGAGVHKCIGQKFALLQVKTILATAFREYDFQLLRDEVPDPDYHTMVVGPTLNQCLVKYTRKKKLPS

SMILES | selectivity ratio [1] | CC50 at 72 h [2] [µM] | Ratio IC50 (Trypanosoma cruzi [3]) | IC50 (Plasmodium falciparum) [µM] | IC50 [4] [µM] | IC50 (Leishmania donovani) [µM] | selectivity ratio [5] | IC50 (Trypanosoma cruzi [6]) [µM] | selectivity ratio [7] | Activity [8]
Clc1ccc(C(c2c[nH]cc2-c2ccc(Cl)cc2-c2ccccc2)n2ccnc2)c(Cl)c1 (stereo unspecified) | 1 | 14.3 | 4 - 12 | 0.096 | 29 | 13.9 | 149 | 0.142 |  | 
C[C@@H]1CC[C@H]2[C@@H](C)C(=O)O[C@@H]3O[C@@]4(C)CC[C@@H]1[C@]32OO4 [ARTEMISININ] |  | > 350 |  | 0.007 |  |  | > 50000 |  |  | 
COc1ccc(-c2c[nH]cc2C(c2ccc(Cl)cc2Cl)n2ccnc2)cc1 (stereo unspecified) | 3 | 14.8 | 57 | 0.46 | 28.4 | 5.51 | 32 | 0.05 |  | 
Clc1ccc(C(c2c[nH]cc2-c2ccc(Cl)cc2-c2ccccc2)n2ccnc2)cc1 (stereo unspecified) |  | 14.9 | 4 - 12 | 0.059 | 34.4 | 15 | 253 | 0.203 |  | 
CS(=O)(=O)c1ccc(-c2c[nH]cc2C(c2ccc(Cl)cc2Cl)n2ccnc2)cc1 (stereo unspecified) | 7 | 68 | 57 | 1.3 | 33 | 10.2 | 52 | 0.029 | 2 | 
Clc1ccc(C(c2c[nH]cc2-c2ccc(Cl)c3ccccc23)n2ccnc2)c(Cl)c1 (stereo unspecified) | 1 | 4.9 |  | 0.33 | 16.5 | 4.83 | 15 | 0.048 |  | 
CCc1ccc(-c2c[nH]cc2C(c2ccc(Cl)cc2Cl)n2ccnc2)cc1 (stereo unspecified) | 3 | 13.3 | 57 | 0.3 | 22.5 | 4.87 | 45 | 0.066 |  | 
O=[N+]([O-])c1ccc(C(c2ccn(-c3ccc([N+](=O)[O-])cc3)c2)n2ccnc2)cc1 (stereo unspecified) | 9 | 159 |  | 2.33 | 11.8 | 17.7 | 68 | 3.6 | 13 | 
Clc1ccc(C(c2c[nH]cc2-c2ccc3ccccc3c2)n2ccnc2)c(Cl)c1 (stereo unspecified) | 1 | 6.54 |  | 0.34 | 15.6 | 6.41 | 19 | 0.018 |  | Active
O=[N+]([O-])c1ccc(-n2ccc(C(c3ccc(Cl)cc3)n3ccnc3)c2)cc1 (stereo unspecified) | 3 | 82.4 |  | 4.57 | 40.6 | 25.2 | 18 | 6.18 | 2 | 
O=[N+]([O-])c1ccc(-n2ccc(C(c3ccccc3)n3ccnc3)c2)cc1 (stereo unspecified) | 2 | 60.4 |  | 4.99 | 14.5 | 31.1 | 12 | 10.2 | 4 | 
CC(C)c1ccc(-c2c[nH]cc2C(c2ccc(Cl)cc2Cl)n2ccnc2)cc1 (stereo unspecified) | 2 | 12.7 | 57 | 0.28 | 24.2 | 5.22 | 45 | 0.066 |  | 
CCN(CC)CCCC(C)Nc1ccnc2cc(Cl)ccc12 (stereo unspecified) [CHLOROQUINE] |  | 92.8 |  |  |  |  |  |  |  | 
